# Results reported in patent publication US12319721B2 (Purdue Research Foundation, priority 2018, dated 2025).
# Bridges are numbered along the chain shown (N, C = ends). Roman numbers before positions name the chains, in order. Where no end group is shown, it is not given here. [ ]: non-standard residue; d: D form. The star is where a group is joined. mini PEG = minipeg spacer; Nle = CCCC[C@H](N)C(=O)O; Octanoyl = CCCCCCCC(=O)*; Dap = NC[C@H](N)C(=O)O
# B1: CNP D10: C-type Natriuretic peptide conjugated with 10 aspartate acids, SEQ ID NO: 7/16, FIG. 30 (peptide)
# chain 1: DDDDDDDDDDGLSKGCFGLKLDRIGSMSGLGC
# chain 2: B1 chain 1
# modifications: disulfide I:16-I:32, II:16-II:32; not fully specified
# B2: VIP D10: Vasoactive intestinal peptide conjugated with D10, SEQ ID NO: 8/17, FIG. 31 (peptide)
# chain 1: HSDAVFTDNYTRLRKQMAVKKYLNSILNDDDDDDDDDD
# chain 2: B2 chain 1
# modifications: 10 aspartates
# Legend:
# [1] = tested on: healed fractured femur; experiment: Femur fracture model, postmortem four-point bend of the healed femur; format: in vivo, Swiss Webster mice; details: for Max load (bone strength) / Work to fracture (bone strength): n=5
# Source text: All in vivo data included herein are from Swiss Webster mice. All mice received an osteotomy on their right femur and received subcutaneous drug administration daily for either 2, 3 or 4 weeks, as indicated, for each compound. 1×concentration represents 1 nmol/day, 10× represents 10 nmol/day, 100×represents 100 nmol/day and most studies have an n of 5.
# The term “Peak Load” means a postmortem 4 point bend of the healed femur. Peak load represents the maximum force the healed femur withstood before it refractured.
# (§1) The targeted conjugates were synthesized using standard Fmoc solid-phase peptide synthesis, as described above. To ensure the conjugates' activity, mouse pre osteo-blast (MCTC3-1) cells were treated with the targeted and untargeted compounds for three days at concentrations from 1 pM to 100 nM. After three days of treatment, the cells were harvested, and the ribonucleic acid (RNA) was purified from the cells. Expression levels of ALP, RUNx2, OSX, osteo-pontin (OPN), collagen 1A (Col-1A), OPG, RANKL, scle-rostin gene (SOST), and OC were quantified via quantitative reverse transcription polymerase chain reaction (RT-qPCR). Once the biological activity of the conjugates was confirmed, they were tested in vivo in a fracture model. Aseptic surgical techniques were used to place a 23-gage needle as in intramedullary nail in the femur of anesthetized, 12-week-old Swiss Webster mice for internal fixation before fracture. Femur fractures were induced using a drop weight fracture device from RISystem. The mice received buprenorphine for three days post fracture. The mice were dosed subcutaneously each day for two weeks, three weeks, 4 weeks, or 17 days. Fracture healing was assessed using microCT (Scanco Medical Ag). Morphometric parameters were quantified in the 100 widest slices of the fracture callus. Trabecular thickness (TbTh), trabecular spacing (TbSp), total volume (TV), and volume of calcified callus (BV) were calculated. Fractured femurs were tested for strength in a four-point bend to failure using an Electro Force TestBench (TA Instruments). Lower supports were 10 mm apart on the anterior face of the femur in contact with the proximal and distal diaphysis. Upper supports were 4 mm apart and spanned the entire fracture callus on the diaphysis. Force was applied from the posterior face of the femur with a displacement rate of 0.3 mm/sec. Peak load, yield load, stiffness, displacement post yield, work to fracture, and deformation data were generated. Statistical analysis was performed using a two-way analysis of variance (ANOVA) and a Tukey post-hoc analysis with significance reported at the 95% confidence level. All animal experiments were performed in accordance with protocols approved by Purdue University's Institutional Animal Care and Use Committee (IACUC).
# [2] = tested on: fracture callus of fractured femur; experiment: Femur fracture model, microCT of the fracture callus (BV/TV, BV, TbTh, TbSp); format: in vivo, Swiss Webster mice
# Source text: All in vivo data included herein are from Swiss Webster mice. […] 1×concentration represents 1 nmol/day, 10× represents 10 nmol/day, 100×represents 100 nmol/day and most studies have an n of 5.
# The term “BV/TV” means the bone volume divided by total volume of the 100 thickest micro CT slices of the fracture callus.
# The term “TbTh” means the trabecular thickness of the 100 thickest micro CT slices of the fracture callus.
# The term “[…]” means the overall bone volume of the 100 thickest micro CT slices of the fracture callus.
# The term “TbSp” means the spacing between the trabecula in the 100 thickest micro CT slices of the fracture callus.
# as §1, with “The mice were dosed subcutaneously each day for two weeks, three weeks, 4 weeks, or 17 days.” left out
# [3] = 3 weeks, 0.1, 1 and 10 nmol daily subcutaneous
# [4] = 3 weeks, 0.1, 1 and 10 nmol daily subcutaneous, n=5
# [5] = 2 weeks, various concentrations 1-100 nmol/day, subcutaneous daily
# [6] = 3 weeks, 1, 10 and 100 nmol daily subcutaneous
# [7] = 3 weeks, 1, 10 and 100 nmol daily subcutaneous, n=5
# [8] = 4 weeks, various concentrations (1, 10 and in part 100 nmol/day), subcutaneous daily
# [9] = 1 μmol/kg, subcutaneous, every-other-day, CFW Swiss Webster mice
molecule,measurement,setting,value
"B2A_mp4_(D)E10: two B2A branches (SEQ ID NO: 44) conjugated to e10 (D-glutamic acids), SEQ ID NO: 19, FIG. 35 (AIS[Nle]LYLDENEKVVLK; not fully specified; also: C-terminal Lys carries branching Lys-Ahx3-D-Glu10 moiety)",Max load (bone strength),[1]; [3],raises bone strength
same,Work to fracture (bone strength),[1]; [3],raises bone strength
same,BV/TV (bone density),[2]; [3],raises bone density
same,"BV (bone volume, bone mineralization)",[2]; [4],raises bone mineralization
"BFP-D10: bone forming peptide conjugated with 10 aspartate acids, SEQ ID NO: 1, DDDDDDDDDDGQGFSYPYKA VFSTQ (DDDDDDDDDDGQGFSYPYKAVFSTQ; 10 aspartates)","Peak load of fractured femurs (ranking, compared to PBS)","[1]; after 2 weeks, 100 nmol/day (100×)",obtained the maximum peak load
same,BV/TV,[2]; [5],dose dependent manner
same,TbSp,[2]; [5],dose dependent manner
"CBM D10: collagen binding motif of osteopontin conjugated with 10 aspartate acids, SEQ ID NO: 9, FIG. 33",BV/TV (bone density),[2]; [3],dose dependent manner
"F2A_mp4_(D)E10: two copies of FGF2 receptor targeting sequence YRSRKYSSWYVALKR branching from a lysine, 4 mini pegs, 10 D glutamic acids",Max load (bone strength),[1]; [3],raises bone strength
same,Work to fracture (bone strength),[1]; [3],raises bone strength
same,BV/TV (bone density),[2]; [3],raises bone density
same,"BV (bone volume, bone mineralization)",[2]; [4],raises bone mineralization
"F119_mp4 (D)E10: heparin binding fragment 119-135 of FGF2 with mp4 linker and 10 glutamic acids, SEQ ID NO: 20, FIG. 84 (KRTGQYKLGSKTGPGQK; mp4 linker, 10 D-glutamic acids; SITE 17 C-term Lysine modified with 4 mini PEG linker-d(Glutamic acid)10 moiety)",Max load (bone strength),[1]; [6],raises bone strength
same,Work to fracture (bone strength),[1]; [6],raises bone strength
same,"BV (bone volume, bone mineralization)",[2]; [7],raises bone mineralization
same,BV/TV (bone density),[2]; [7],raises bone density
"Ghrelin-D 10: Ghrelin D10 with Ser-3 replaced with diaminopropionic acid modified with an octanoyl group sidechain, SEQ ID NO: 5 (GS[Dap](Octanoyl)FLSPEHQKAQQRKESKKPPAKLQPRDDDDDDDDDD)",BV/TV,[2]; [8],dose dependent manner
"MGF D10: Mechano-growth factor conjugated with 10 aspartate acids, SEQ ID NO: 11, DDDDDDDDDDYQPPSTNKNTKSQRRKGSTFEEHK (10 aspartates)",BV/TV,[2]; [8],dose dependent manner
"ODP D10: Osteopontin-derived peptide conjugated with 10 aspartate acids via 4 mini PEG, SEQ ID NO: 13 (DDDDDDDDDD[mini PEG][mini PEG][mini PEG][mini PEG]DVDVPDGRGDSLAYG)",BV/TV,"[2]; 4 weeks, 1 nmol/day (1×)",healing was reflected as BV/TV
"OGP-D10: osteogenic growth peptide conjugated with 10 aspartate acids, SEQ ID NO: 2, DDDDDDDDDDALKRQGRTL YGFGG (DDDDDDDDDDALKRQGRTLYGFGG; 10 aspartates)",BV/TV,[2]; [5],dose dependent manner
same,TbSp,[2]; [5],dose dependent manner
same,TbTh,[2]; [5],dose dependent manner
"P4 D10: P4 (BMP-2 knuckle epitope fragment) conjugated with 10 aspartate acids, SEQ ID NO: 10 (HKIPKASSVPTELSAISTLYLDDDDDDDDDD; 10 aspartates)",BV/TV,[2]; [8],dose dependent manner
"Preptin D10: Preptin conjugated with 10 aspartate acids, SEQ ID NO: 3, FIG. 29 (DVSTSQAVLPDDFPRYDDDDDDDDDD; 10 aspartates)",BV/TV,[2]; [5],dose dependent manner
same,TbTh,[2]; [5],dose dependent manner
same,bone volume (BV),[2]; [5],dose dependent manner
"pBMP9 D 10: peptide from BMP-9 knuckle epitope conjugated with D10, SEQ ID NO: 6/14, FIG. 27 (chain 1 CGGKVGKACCVPTKLSPISVLYK; chain 2 CGGKVGKACCVPTKLSPISVLVK; not fully specified (C-terminus); cysteine pairing not given here; also: the two chains differ at position 22 (Y vs V))",bone volume (BV),"[2]; 4 weeks, 1, 10 and 100 nmol/day, subcutaneous daily",dose dependent manner
same,BV/TV,[2]; [8],dose dependent manner
"targeted E738 conjugate: Src inhibitor E738 conjugated with D10 (10 aspartic acids, SEQ ID NO: 30), FIG. 4 (DDDDDDDDDD; not fully specified (C-terminus); also: conjugated to Src inhibitor E738)",Trabecular Thickness at the fracture callus,[2]; [9],significantly improved
same,bone density (BV/TV) at the fracture callus,[2]; [9],significantly improved
B1,BV/TV,[2]; [8],dose dependent manner
B2,BV/TV,"[2]; 4 weeks, 1 nmol/day (1×)",healing was reflected as BV/TV
same,TbTh,"[2]; 4 weeks, 1 nmol/day (1×)",healing was reflected
